For four molecules, Kd results are on record in ChEMBL document CHEMBL3991601, “The target landscape of clinical kinase drugs” (Science, 2017).

Assay [1] concerns the target T1, Peroxisomal acyl-coenzyme A oxidase 3 (Homo sapiens, UniProt O15254).
T1 sequence (O15254 whole entry): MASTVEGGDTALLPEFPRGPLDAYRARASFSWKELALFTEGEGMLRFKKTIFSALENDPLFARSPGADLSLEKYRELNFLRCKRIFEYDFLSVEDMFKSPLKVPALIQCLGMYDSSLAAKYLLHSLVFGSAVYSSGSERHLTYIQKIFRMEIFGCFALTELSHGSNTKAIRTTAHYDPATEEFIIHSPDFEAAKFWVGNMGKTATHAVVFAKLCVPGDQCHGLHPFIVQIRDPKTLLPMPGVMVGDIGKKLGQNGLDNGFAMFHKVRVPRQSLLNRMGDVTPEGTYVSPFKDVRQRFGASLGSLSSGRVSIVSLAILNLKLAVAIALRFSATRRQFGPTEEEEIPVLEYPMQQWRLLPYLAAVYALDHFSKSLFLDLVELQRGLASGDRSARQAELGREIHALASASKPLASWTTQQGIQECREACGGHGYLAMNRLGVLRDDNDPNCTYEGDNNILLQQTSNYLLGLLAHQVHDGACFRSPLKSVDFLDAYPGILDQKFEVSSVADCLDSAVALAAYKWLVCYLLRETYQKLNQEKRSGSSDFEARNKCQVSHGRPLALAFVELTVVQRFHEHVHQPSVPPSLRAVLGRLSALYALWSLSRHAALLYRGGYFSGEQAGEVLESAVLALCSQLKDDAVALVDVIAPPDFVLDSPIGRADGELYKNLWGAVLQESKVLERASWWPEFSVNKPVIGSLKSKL

Assay [2] addresses Cyclin-dependent kinase 7 (Homo sapiens, UniProt P50613).
The target in assay [3] is Citron Rho-interacting kinase (Homo sapiens, UniProt O14578).
Assay [4] deals with Casein kinase I isoform alpha (Homo sapiens, UniProt P48729).
For a further assay, the target named is T2, dCTP pyrophosphatase 1 (Homo sapiens, UniProt Q9H773).
T2 sequence (Q9H773 whole entry): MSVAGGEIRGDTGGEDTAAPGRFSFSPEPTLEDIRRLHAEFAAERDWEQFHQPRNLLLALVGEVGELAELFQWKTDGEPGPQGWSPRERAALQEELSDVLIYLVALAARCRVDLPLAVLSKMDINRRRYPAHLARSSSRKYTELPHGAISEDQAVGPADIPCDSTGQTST

In another assay the target is Insulin receptor (Homo sapiens, UniProt P06213).
For assay [5], the target named is Mitogen-activated protein kinase 1 (Homo sapiens, UniProt P28482).
Assay [6] deals with Mitogen-activated protein kinase 7 (Homo sapiens, UniProt Q13164).
The target of assay [7] is S-adenosylmethionine synthase isoform type-2 (Homo sapiens, UniProt P31153).
Assay [8] deals with Serine/threonine-protein kinase PAK 4 (Homo sapiens, UniProt O96013).
The target in assay [9] is T3, Membrane-associated tyrosine- and threonine-specific cdc2-inhibitory kinase (Homo sapiens, UniProt Q99640).
T3 sequence (Q99640 whole entry): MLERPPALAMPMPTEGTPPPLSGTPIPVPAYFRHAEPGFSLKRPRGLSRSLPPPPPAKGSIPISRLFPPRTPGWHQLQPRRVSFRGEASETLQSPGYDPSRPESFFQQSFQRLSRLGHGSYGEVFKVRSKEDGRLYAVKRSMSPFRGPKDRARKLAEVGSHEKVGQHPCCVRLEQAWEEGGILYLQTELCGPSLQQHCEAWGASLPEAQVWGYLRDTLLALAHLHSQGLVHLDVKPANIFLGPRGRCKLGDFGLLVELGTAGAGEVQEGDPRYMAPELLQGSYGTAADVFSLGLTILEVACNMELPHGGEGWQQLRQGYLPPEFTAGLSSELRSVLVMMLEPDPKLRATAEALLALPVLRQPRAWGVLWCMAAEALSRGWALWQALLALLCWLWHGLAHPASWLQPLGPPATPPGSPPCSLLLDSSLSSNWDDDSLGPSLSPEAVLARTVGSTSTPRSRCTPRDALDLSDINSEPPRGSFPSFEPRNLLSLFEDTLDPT

The target of assay [10] is Protein kinase C alpha type (Homo sapiens, UniProt P17252).
A further assay deals with T4, Septin-9 (Homo sapiens, UniProt Q9UHD8).
T4 sequence (Q9UHD8 whole entry): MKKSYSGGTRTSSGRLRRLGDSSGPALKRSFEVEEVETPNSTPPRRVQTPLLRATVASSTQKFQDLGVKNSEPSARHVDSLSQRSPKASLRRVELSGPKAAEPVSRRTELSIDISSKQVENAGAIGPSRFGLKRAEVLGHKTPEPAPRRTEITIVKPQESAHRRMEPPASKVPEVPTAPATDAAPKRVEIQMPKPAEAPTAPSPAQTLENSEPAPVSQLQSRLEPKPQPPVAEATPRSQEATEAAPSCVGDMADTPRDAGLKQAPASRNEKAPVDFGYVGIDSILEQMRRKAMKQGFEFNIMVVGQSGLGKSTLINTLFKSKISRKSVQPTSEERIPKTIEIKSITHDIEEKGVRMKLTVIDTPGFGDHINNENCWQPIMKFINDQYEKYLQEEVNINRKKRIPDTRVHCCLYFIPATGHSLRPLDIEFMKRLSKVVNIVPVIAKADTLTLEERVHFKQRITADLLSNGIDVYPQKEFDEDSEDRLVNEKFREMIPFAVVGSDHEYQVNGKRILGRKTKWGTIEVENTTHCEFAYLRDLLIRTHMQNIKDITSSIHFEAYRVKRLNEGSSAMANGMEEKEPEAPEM

In assay [11] the target is Serine/threonine-protein kinase 16 (Homo sapiens, UniProt O75716).

The structures appear in SMILES notation. The source made the active and inactive calls.
Also: in the data inactive means no Kd found up to 30 µM.

Insulin receptor, sequence (P06213 28-758 limits assumed): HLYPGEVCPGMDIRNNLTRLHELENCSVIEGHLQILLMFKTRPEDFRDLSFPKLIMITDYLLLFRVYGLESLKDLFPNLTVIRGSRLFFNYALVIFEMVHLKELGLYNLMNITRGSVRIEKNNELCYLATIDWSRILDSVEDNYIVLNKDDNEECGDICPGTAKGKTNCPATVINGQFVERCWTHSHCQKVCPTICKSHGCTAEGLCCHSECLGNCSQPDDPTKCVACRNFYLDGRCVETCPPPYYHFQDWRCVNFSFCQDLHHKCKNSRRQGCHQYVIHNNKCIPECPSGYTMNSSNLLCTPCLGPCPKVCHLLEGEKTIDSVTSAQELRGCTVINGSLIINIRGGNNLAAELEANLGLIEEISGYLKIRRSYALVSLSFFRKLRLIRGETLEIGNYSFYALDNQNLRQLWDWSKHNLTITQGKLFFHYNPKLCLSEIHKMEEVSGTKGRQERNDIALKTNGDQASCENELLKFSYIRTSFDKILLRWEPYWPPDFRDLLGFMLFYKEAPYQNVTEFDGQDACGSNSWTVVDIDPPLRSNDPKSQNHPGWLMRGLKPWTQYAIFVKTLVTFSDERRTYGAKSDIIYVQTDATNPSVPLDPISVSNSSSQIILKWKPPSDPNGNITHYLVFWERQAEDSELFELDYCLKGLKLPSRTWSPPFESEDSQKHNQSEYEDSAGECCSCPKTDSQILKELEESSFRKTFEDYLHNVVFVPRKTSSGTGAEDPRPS
Insulin receptor, sequence (P06213 763-1382 limits assumed): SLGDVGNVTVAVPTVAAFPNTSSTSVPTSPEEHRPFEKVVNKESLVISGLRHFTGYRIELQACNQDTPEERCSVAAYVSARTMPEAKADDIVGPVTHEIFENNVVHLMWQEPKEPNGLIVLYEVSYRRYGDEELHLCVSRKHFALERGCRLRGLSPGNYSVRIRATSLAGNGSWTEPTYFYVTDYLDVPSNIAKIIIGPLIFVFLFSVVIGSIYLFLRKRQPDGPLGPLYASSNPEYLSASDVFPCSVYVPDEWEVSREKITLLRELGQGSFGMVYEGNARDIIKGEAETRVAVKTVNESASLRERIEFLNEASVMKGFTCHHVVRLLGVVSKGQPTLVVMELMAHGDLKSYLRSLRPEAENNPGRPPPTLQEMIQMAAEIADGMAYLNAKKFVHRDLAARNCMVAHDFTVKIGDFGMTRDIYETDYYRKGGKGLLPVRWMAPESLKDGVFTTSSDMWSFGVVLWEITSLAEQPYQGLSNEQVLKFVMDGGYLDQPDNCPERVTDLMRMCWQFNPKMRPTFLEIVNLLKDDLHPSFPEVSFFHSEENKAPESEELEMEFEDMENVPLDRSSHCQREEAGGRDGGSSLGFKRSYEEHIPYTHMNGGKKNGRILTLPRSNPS
S-adenosylmethionine synthase isoform type-2, sequence (P31153 whole entry, canonical isoform): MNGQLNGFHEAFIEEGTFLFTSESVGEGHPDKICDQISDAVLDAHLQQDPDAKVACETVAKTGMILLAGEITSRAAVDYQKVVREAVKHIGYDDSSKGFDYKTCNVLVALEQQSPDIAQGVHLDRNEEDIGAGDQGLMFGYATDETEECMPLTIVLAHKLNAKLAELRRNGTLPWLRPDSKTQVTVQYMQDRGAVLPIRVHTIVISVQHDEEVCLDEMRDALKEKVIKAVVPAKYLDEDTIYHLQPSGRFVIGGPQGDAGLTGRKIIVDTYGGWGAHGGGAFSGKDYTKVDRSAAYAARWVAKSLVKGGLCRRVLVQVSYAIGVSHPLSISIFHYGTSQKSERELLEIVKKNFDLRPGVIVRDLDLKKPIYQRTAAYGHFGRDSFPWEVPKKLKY
Citron Rho-interacting kinase, sequence (O14578 whole entry, canonical isoform): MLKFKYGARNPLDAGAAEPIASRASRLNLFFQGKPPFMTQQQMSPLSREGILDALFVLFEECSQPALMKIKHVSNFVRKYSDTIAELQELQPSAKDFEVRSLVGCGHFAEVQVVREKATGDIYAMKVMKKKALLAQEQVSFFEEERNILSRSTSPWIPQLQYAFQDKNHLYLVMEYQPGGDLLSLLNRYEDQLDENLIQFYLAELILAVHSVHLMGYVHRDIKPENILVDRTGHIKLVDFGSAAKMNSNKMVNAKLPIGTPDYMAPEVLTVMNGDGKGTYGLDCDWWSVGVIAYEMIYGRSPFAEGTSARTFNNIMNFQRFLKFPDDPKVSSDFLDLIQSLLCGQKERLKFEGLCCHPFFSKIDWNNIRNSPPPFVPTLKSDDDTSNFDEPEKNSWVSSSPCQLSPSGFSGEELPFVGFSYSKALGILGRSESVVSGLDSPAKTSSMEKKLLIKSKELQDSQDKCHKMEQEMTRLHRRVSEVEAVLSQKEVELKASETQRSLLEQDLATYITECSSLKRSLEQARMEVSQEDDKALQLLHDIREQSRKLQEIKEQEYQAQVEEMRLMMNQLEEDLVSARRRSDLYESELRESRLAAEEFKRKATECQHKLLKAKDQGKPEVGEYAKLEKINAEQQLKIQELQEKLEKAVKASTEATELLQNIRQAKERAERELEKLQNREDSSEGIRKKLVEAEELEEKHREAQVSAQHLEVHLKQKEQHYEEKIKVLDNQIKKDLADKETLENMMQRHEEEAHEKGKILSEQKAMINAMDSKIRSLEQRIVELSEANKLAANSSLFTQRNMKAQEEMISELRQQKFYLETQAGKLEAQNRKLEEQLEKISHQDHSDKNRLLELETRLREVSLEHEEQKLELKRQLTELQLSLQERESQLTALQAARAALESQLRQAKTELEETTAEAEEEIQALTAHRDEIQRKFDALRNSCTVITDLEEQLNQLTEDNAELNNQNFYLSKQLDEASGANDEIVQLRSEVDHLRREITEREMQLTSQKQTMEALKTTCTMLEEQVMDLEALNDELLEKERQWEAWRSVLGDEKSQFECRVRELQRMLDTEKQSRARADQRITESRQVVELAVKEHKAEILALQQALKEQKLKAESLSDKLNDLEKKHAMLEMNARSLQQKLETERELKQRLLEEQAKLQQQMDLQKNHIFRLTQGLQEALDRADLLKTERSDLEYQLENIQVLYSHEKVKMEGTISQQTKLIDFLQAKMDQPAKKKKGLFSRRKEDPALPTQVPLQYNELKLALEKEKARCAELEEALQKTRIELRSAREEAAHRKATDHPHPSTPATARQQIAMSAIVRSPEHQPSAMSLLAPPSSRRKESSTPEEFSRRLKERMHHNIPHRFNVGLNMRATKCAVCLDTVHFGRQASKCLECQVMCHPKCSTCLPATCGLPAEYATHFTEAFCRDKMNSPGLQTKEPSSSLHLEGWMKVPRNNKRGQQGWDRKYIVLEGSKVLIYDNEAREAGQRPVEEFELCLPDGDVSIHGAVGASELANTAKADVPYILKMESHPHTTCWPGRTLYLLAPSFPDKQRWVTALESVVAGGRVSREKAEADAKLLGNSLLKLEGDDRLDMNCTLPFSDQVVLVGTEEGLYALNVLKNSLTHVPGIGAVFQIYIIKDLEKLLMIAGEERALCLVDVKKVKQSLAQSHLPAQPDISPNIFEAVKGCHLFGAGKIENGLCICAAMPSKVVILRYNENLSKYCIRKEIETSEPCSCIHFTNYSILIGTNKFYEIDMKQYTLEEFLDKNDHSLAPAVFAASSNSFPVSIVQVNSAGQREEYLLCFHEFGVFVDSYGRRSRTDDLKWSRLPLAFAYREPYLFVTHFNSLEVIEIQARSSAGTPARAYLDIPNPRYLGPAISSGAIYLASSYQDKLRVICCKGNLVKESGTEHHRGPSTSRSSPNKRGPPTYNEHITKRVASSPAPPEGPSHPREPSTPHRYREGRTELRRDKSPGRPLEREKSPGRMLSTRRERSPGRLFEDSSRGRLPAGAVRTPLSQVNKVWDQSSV
Serine/threonine-protein kinase PAK 4, sequence (O96013 whole entry): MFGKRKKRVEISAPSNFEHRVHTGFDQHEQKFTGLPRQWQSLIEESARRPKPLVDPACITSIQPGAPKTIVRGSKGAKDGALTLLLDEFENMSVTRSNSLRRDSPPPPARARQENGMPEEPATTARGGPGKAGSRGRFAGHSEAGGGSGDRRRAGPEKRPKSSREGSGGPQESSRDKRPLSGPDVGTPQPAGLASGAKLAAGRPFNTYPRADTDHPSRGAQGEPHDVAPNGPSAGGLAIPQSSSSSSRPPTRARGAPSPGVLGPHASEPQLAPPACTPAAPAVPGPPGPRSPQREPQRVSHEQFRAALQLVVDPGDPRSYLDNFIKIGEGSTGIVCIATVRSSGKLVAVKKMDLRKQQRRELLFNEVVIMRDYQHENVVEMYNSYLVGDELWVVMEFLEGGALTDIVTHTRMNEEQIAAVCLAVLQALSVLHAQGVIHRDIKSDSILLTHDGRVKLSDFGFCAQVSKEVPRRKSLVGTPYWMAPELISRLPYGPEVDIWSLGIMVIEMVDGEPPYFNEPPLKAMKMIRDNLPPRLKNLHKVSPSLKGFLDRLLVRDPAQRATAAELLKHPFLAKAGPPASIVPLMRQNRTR
Cyclin-dependent kinase 7, sequence (P50613 whole entry): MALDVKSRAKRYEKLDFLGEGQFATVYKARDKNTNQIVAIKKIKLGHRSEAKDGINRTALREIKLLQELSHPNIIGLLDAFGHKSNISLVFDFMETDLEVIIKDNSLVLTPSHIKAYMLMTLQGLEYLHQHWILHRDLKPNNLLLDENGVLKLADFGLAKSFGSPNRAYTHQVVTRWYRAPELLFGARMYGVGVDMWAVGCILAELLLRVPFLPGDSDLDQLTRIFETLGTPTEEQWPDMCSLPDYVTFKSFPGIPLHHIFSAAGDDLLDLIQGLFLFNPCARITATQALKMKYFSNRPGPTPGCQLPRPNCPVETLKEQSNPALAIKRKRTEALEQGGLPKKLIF
Serine/threonine-protein kinase 16, sequence (O75716 whole entry): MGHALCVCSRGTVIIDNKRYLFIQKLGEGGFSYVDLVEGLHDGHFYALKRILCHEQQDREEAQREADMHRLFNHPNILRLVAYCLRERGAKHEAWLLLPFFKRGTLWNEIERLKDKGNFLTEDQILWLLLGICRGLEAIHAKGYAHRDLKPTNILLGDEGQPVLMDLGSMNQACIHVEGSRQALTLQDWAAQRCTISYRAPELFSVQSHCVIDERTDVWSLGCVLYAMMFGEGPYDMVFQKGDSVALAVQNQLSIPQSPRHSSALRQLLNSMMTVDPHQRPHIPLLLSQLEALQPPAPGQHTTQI

`N#CCNC(=O)c1ccc(-c2ccnc(Nc3ccc(N4CCOCC4)cc3)n2)cc1` [MOMELOTINIB]: the Kd (as a rule, the free concentration of one partner at which half of the binding sites on the other are occupied at equilibrium, for simple one-to-one binding) in assay [1] is > 30 µM (inactive); in assay [2] it was > 30 µM (inactive); in [3], 0.313 µM (active); in [4] it was > 30 µM (inactive); at dCTP pyrophosphatase 1, > 30 µM (inactive); at Insulin receptor, > 30 µM (inactive). For the same molecule, the Kd in assay [5], in [6], in [7], in assay [8], in [9] and in assay [10] was > 30 µM (inactive) in each case. In addition, the Kd was > 30 µM (inactive) on Septin-9 and 1.28 µM (active) in [11].
On to `O=C(O)c1ccc2c(c1)nc(Nc1cccc(Cl)c1)c1ccncc12` [SILMITASERTIB], for which the Kd in [1] was > 30 µM (inactive); in [2], 7.12 µM (active); in assay [3] it was > 30 µM (inactive); in [4], > 30 µM (inactive); at dCTP pyrophosphatase 1, > 30 µM (inactive); on Insulin receptor it was > 30 µM (inactive). In addition, the Kd in assay [5], in assay [6], in assay [7], in assay [8], in [9] and in assay [10] was > 30 µM (inactive) each time. Besides, the Kd (on Septin-9; in assay [11]) was > 30 µM (inactive) throughout.
With `Cc1c(NC(=O)OC[C@@H]2COCCN2)cn2ncnc(Nc3ccc4c(cnn4Cc4cccc(F)c4)c3)c12` [AC-480], the Kd (in assay [1]; in [2]; in assay [3]; in assay [4]; on dCTP pyrophosphatase 1; at Insulin receptor) was > 30 µM (inactive) throughout. The Kd in [5], in assay [6], in assay [7], in assay [8], in [9] and in assay [10] was > 30 µM (inactive) in each case. Besides, the Kd (at Septin-9; in assay [11]) was > 30 µM (inactive) throughout.
For `O[C@H]1CC[C@H](Nc2ncc3nc(Nc4c(F)cc(F)cc4F)n([C@H]4CCOC4)c3n2)CC1` [TANZISERTIB], the Kd (in assay [1]; in [2]; in assay [3]; in [4]; on dCTP pyrophosphatase 1; at Insulin receptor) was > 30 µM (inactive) throughout. Also, the Kd in [5] was 1.23 µM (active); in assay [6], > 30 µM (inactive); in [7], > 30 µM (inactive); in [8], > 30 µM (inactive); in assay [9], > 30 µM (inactive); in assay [10], > 30 µM (inactive). The Kd (at Septin-9; in assay [11]) was > 30 µM (inactive) in each case.
